# Assay: Single fixed dose dosing regimen examples for safety and efficacy (serum T Cmax / Cavg criteria), with food
# Assay type: in vivo, human
# [1] = Regimen 1, QD 500 mg T13, with food with at least 10 g of fat
# [2] = Regimen 2, QD 700 mg T13, with food with at least 10 g of fat
# [3] = Regimen 3, QD 750 mg T13, with food with at least 10 g of fat
# [4] = Regimen 4, QD 800 mg T13, with food with at least 10 g of fat
# [5] = Regimen 5, QD 900 mg T13, with food with at least 10 g of fat
# [6] = Regimen 6, QD 1000 mg T13, with food with at least 10 g of fat
# [7] = Regimen 7, QD 1100 mg T13, with food with at least 10 g of fat
# [8] = Regimen 8, QD 1150 mg T13, with food with at least 10 g of fat
# [9] = Regimen 9, QD 1250 mg T13, with food with at least 10 g of fat
# [10] = Regimen 10, BID-equal dose (AM/PM) 250/250 mg T13, with food with at least 10 g of fat
# [11] = Regimen 11, BID-equal dose (AM/PM) 350/350 mg T13, with food with at least 10 g of fat
# [12] = Regimen 12, BID-equal dose (AM/PM) 375/375 mg T13, with food with at least 10 g of fat
# [13] = Regimen 13, BID-equal dose (AM/PM) 400/400 mg T13, with food with at least 10 g of fat
# [14] = Regimen 14, BID-equal dose (AM/PM) 450/450 mg T13, with food with at least 10 g of fat
# [15] = Regimen 15, BID-equal dose (AM/PM) 500/500 mg T13, with food with at least 10 g of fat
# [16] = Regimen 16, BID-equal dose (AM/PM) 550/550 mg T13, with food with at least 10 g of fat
# [17] = Regimen 17, BID-equal dose (AM/PM) 575/575 mg T13, with food with at least 10 g of fat
# [18] = Regimen 18, BID-equal dose (AM/PM) 625/625 mg T13, with food with at least 10 g of fat
structure (smiles),measurement,setting,value
"CCCCCCCCCCCCC(=O)O[C@H]1CC[C@H]2[C@@H]3CCC4=CC(=O)CC[C@]4(C)[C@H]3CC[C@]12C [T13, testosterone tridecanoate]",Cavg > 300 ng/dL ≥75% patients,[1],No
same,Cavg > 300 ng/dL ≥80% patients,[1],No
same,Cmax > 1500 ng/dL <15% patients,[1],Yes
same,Cmax > 1500 ng/dL <20% patients,[1],Yes
same,Cmax > 1800 ng/dL <5% patients,[1],Yes
same,Cmax > 1800 ng/dL <10% patients,[1],Yes
same,Cmax > 2500 ng/dL <2% patients,[1],Yes
same,Cmax > 2500 ng/dL none of patients,[1],Yes
same,Cavg > 300 ng/dL ≥75% patients,[2],No
same,Cavg > 300 ng/dL ≥80% patients,[2],No
same,Cmax > 1500 ng/dL <15% patients,[2],Yes
same,Cmax > 1500 ng/dL <20% patients,[2],Yes
same,Cmax > 1800 ng/dL <5% patients,[2],Yes
same,Cmax > 1800 ng/dL <10% patients,[2],Yes
same,Cmax > 2500 ng/dL <2% patients,[2],Yes
same,Cmax > 2500 ng/dL none of patients,[2],Yes
same,Cavg > 300 ng/dL ≥75% patients,[3],Yes
same,Cavg > 300 ng/dL ≥80% patients,[3],No
same,Cmax > 1500 ng/dL <15% patients,[3],Yes
same,Cmax > 1500 ng/dL <20% patients,[3],Yes
same,Cavg > 300 ng/dL ≥75% patients,[4],Yes
same,Cavg > 300 ng/dL ≥80% patients,[4],Yes
same,Cavg > 300 ng/dL ≥75% patients,[5],Yes
same,Cavg > 300 ng/dL ≥80% patients,[5],Yes
same,Cmax > 1500 ng/dL <15% patients,[5],Yes
same,Cmax > 1500 ng/dL <20% patients,[5],Yes
same,Cmax > 1800 ng/dL <5% patients,[5],Yes
same,Cmax > 1800 ng/dL <10% patients,[5],Yes
same,Cmax > 2500 ng/dL <2% patients,[5],Yes
same,Cmax > 2500 ng/dL none of patients,[5],Yes
same,Cavg > 300 ng/dL ≥75% patients,[6],Yes
same,Cavg > 300 ng/dL ≥80% patients,[6],Yes
same,Cmax > 1500 ng/dL <15% patients,[6],Yes
same,Cmax > 1500 ng/dL <20% patients,[6],Yes
same,Cmax > 1800 ng/dL <5% patients,[6],Yes
same,Cmax > 1800 ng/dL <10% patients,[6],Yes
same,Cmax > 2500 ng/dL <2% patients,[6],Yes
same,Cmax > 2500 ng/dL none of patients,[6],Yes
same,Cavg > 300 ng/dL ≥75% patients,[7],Yes
same,Cavg > 300 ng/dL ≥80% patients,[7],Yes
same,Cmax > 1500 ng/dL <15% patients,[7],Yes
same,Cmax > 1500 ng/dL <20% patients,[7],Yes
same,Cmax > 1800 ng/dL <5% patients,[7],Yes
same,Cmax > 1800 ng/dL <10% patients,[7],Yes
same,Cmax > 2500 ng/dL <2% patients,[7],Yes
same,Cmax > 2500 ng/dL none of patients,[7],Yes
same,Cavg > 300 ng/dL ≥75% patients,[8],Yes
same,Cavg > 300 ng/dL ≥80% patients,[8],Yes
same,Cmax > 1500 ng/dL <15% patients,[8],No
same,Cmax > 1500 ng/dL <20% patients,[8],Yes
same,Cmax > 1800 ng/dL <5% patients,[8],Yes
same,Cmax > 1800 ng/dL <10% patients,[8],Yes
same,Cmax > 2500 ng/dL <2% patients,[8],Yes
same,Cmax > 2500 ng/dL none of patients,[8],No
same,Cavg > 300 ng/dL ≥75% patients,[9],Yes
same,Cavg > 300 ng/dL ≥80% patients,[9],Yes
same,Cmax > 1500 ng/dL <15% patients,[9],No
same,Cmax > 1500 ng/dL <20% patients,[9],No
same,Cmax > 1800 ng/dL <5% patients,[9],No
same,Cmax > 1800 ng/dL <10% patients,[9],No
same,Cmax > 2500 ng/dL <2% patients,[9],No
same,Cmax > 2500 ng/dL none of patients,[9],No
same,Cavg > 300 ng/dL ≥75% patients,[10],No
same,Cavg > 300 ng/dL ≥80% patients,[10],No
same,Cmax > 1500 ng/dL <15% patients,[10],Yes
same,Cmax > 1500 ng/dL <20% patients,[10],Yes
same,Cmax > 1800 ng/dL <5% patients,[10],Yes
same,Cmax > 1800 ng/dL <10% patients,[10],Yes
same,Cmax > 2500 ng/dL <2% patients,[10],Yes
same,Cmax > 2500 ng/dL none of patients,[10],Yes
same,Cavg > 300 ng/dL ≥75% patients,[11],No
same,Cavg > 300 ng/dL ≥80% patients,[11],No
same,Cmax > 1500 ng/dL <15% patients,[11],Yes
same,Cmax > 1500 ng/dL <20% patients,[11],Yes
same,Cmax > 1800 ng/dL <5% patients,[11],Yes
same,Cmax > 1800 ng/dL <10% patients,[11],Yes
same,Cmax > 2500 ng/dL <2% patients,[11],Yes
same,Cmax > 2500 ng/dL none of patients,[11],Yes
same,Cavg > 300 ng/dL ≥75% patients,[12],Yes
same,Cavg > 300 ng/dL ≥80% patients,[12],No
same,Cmax > 1500 ng/dL <15% patients,[12],Yes
same,Cmax > 1500 ng/dL <20% patients,[12],Yes
same,Cmax > 1800 ng/dL <5% patients,[12],Yes
same,Cmax > 1800 ng/dL <10% patients,[12],Yes
same,Cmax > 2500 ng/dL <2% patients,[12],Yes
same,Cmax > 2500 ng/dL none of patients,[12],Yes
same,Cavg > 300 ng/dL ≥75% patients,[13],Yes
same,Cavg > 300 ng/dL ≥80% patients,[13],Yes
same,Cmax > 1500 ng/dL <15% patients,[13],Yes
same,Cmax > 1500 ng/dL <20% patients,[13],Yes
same,Cmax > 1800 ng/dL <5% patients,[13],Yes
same,Cmax > 1800 ng/dL <10% patients,[13],Yes
same,Cmax > 2500 ng/dL <2% patients,[13],Yes
same,Cmax > 2500 ng/dL none of patients,[13],Yes
same,Cavg > 300 ng/dL ≥75% patients,[14],Yes
same,Cavg > 300 ng/dL ≥80% patients,[14],Yes
same,Cmax > 1500 ng/dL <15% patients,[14],Yes
same,Cmax > 1500 ng/dL <20% patients,[14],Yes
same,Cmax > 1800 ng/dL <5% patients,[14],Yes
same,Cmax > 1800 ng/dL <10% patients,[14],Yes
same,Cmax > 2500 ng/dL <2% patients,[14],Yes
same,Cmax > 2500 ng/dL none of patients,[14],Yes
same,Cavg > 300 ng/dL ≥75% patients,[15],Yes
same,Cavg > 300 ng/dL ≥80% patients,[15],Yes
same,Cmax > 1500 ng/dL <15% patients,[15],Yes
same,Cmax > 1500 ng/dL <20% patients,[15],Yes
same,Cmax > 1800 ng/dL <5% patients,[15],Yes
same,Cmax > 1800 ng/dL <10% patients,[15],Yes
same,Cmax > 2500 ng/dL <2% patients,[15],Yes
same,Cmax > 2500 ng/dL none of patients,[15],Yes
same,Cavg > 300 ng/dL ≥75% patients,[16],Yes
same,Cavg > 300 ng/dL ≥80% patients,[16],Yes
same,Cmax > 1500 ng/dL <15% patients,[16],Yes
same,Cmax > 1500 ng/dL <20% patients,[16],Yes
same,Cmax > 1800 ng/dL <5% patients,[16],Yes
same,Cmax > 1800 ng/dL <10% patients,[16],Yes
same,Cmax > 2500 ng/dL <2% patients,[16],Yes
same,Cmax > 2500 ng/dL none of patients,[16],Yes
same,Cavg > 300 ng/dL ≥75% patients,[17],Yes
same,Cavg > 300 ng/dL ≥80% patients,[17],Yes
same,Cmax > 1500 ng/dL <15% patients,[17],Yes
same,Cmax > 1500 ng/dL <20% patients,[17],Yes
same,Cmax > 1800 ng/dL <5% patients,[17],Yes
same,Cmax > 1800 ng/dL <10% patients,[17],Yes
same,Cmax > 2500 ng/dL <2% patients,[17],Yes
same,Cmax > 2500 ng/dL none of patients,[17],Yes
same,Cavg > 300 ng/dL ≥75% patients,[18],Yes
same,Cavg > 300 ng/dL ≥80% patients,[18],Yes
same,Cmax > 1500 ng/dL <15% patients,[18],Yes
same,Cmax > 1500 ng/dL <20% patients,[18],Yes
same,Cmax > 1800 ng/dL <5% patients,[18],Yes
same,Cmax > 1800 ng/dL <10% patients,[18],Yes
same,Cmax > 2500 ng/dL <2% patients,[18],Yes
same,Cmax > 2500 ng/dL none of patients,[18],Yes

# — patent publication US12303517B1, “Oral testosterone therapy” (Lipocine, Inc., priority 2016, dated 2025)
